# Test system: cytoplasmic mutant R636S RBM20 condensates in H9C2 cells
# Experiment: Screening assay for compounds that modulate cytoplasmic mutant R636S RBM20 condensates (fluorescence imaging)
# Type: cell-based, rat
# Conditions: H9C2 cells transiently transfected with R636S RBM20-Dendra2; 20 μM test compound; incubated 24 hours; versus DMSO
# Method: H9C2 cells were engineered using transient transfection to express a mutant R636S RBM20 polypeptide linked to a Dendra2 label. Following transfection, cells were incubated to allow for RBM20 polypeptide expression for about 16 hours. H9C2 cells were seeded into 384-well plates, and admixed with a control (DMSO) or 20 μM test compound, and then incubated for 24 hours prior to fixation, staining (e.g., with DAPI), and capturing of fluorescent images. H9C2 cells not transfected with mutant R636S RBM20 polypeptide served as controls. Three replicates were run for each compound. Fluorescent images of cells, and/or portions of cells, were captured using a DeltaVision wide-field deconvoluted system.
# Non-transfected H9C2 cells served as control. […] Their down-regulation levels are indicated as Z score under each panel.
row,SMILES,effect on cytoplasmic mutant R636S RBM20 condensates
1,O=C1Nc2cc(Br)ccc2/C1=C1/Nc2ccccc2/C1=N\O [BIO],able to reduce cytoplasmic mutant R636S RBM20 condensates
2,CCN(CC)CCCC(C)Nc1c2ccc(Cl)cc2nc2ccc(OC)cc12.Cl.Cl (stereo not drawn) [Quinacrine 2HCl],increased cytoplasmic mutant R636S RBM20 condensates
3,CC(C)[C@]12O[C@H]1[C@@H]1O[C@]13[C@]1(O[C@H]1C[C@H]1C4=C(CC[C@@]13C)C(=O)OC4)[C@@H]2O [Triptolide],able to reduce cytoplasmic mutant R636S RBM20 condensates
4,Cn1ncc(Cl)c1-c1cc(C(=O)N[C@H](CN)Cc2ccc(F)c(F)c2)oc1Cl [Uprosertib],able to reduce cytoplasmic mutant R636S RBM20 condensates
5,CN1CCN(Cc2ccc(NC(=O)Cc3ccc(Oc4cc(NC(=O)C5CC5)ncn4)cc3)cc2C(F)(F)F)CC1 [WS6],able to reduce cytoplasmic mutant R636S RBM20 condensates
6,COc1ccc(C[C@H]2NC[C@H](O)[C@H]2OC(C)=O)cc1 [anisomycin],able to reduce cytoplasmic mutant R636S RBM20 condensates
